Measured values published in ChEMBL document CHEMBL4507262, “Data for DCP probe A-1596586” (2021).

Legend:
[1] = biological target: Delta-type opioid receptor (Homo sapiens) (UniProt P41143); conditions: Compound concentration 10.0 uM
[2] = biological target: T1, Alpha-2B adrenergic receptor (Homo sapiens) (UniProt P18089); assay: Alpha2B (h) Eurofins-Cerep binding assay; set-up: ligand concentration 2.5 nM; conditions: filed as antagonist, Compound concentration 10.0 uM
T1 sequence (whole entry): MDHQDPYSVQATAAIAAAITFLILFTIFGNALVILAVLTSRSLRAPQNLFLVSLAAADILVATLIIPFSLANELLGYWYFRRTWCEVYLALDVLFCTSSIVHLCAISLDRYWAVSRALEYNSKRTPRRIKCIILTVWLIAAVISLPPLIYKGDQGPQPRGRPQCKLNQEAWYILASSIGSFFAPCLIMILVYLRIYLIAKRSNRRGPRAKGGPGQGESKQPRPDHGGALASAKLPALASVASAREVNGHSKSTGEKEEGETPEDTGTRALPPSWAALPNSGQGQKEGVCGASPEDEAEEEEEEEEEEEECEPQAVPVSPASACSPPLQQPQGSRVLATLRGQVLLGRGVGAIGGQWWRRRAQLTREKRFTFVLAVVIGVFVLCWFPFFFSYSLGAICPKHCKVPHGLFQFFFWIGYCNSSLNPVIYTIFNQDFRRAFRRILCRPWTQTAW

[3] = biological target: Type-1 angiotensin II receptor (Homo sapiens) (UniProt P30556); assay: AT1 (h) Eurofins-Cerep binding assay; set-up: ligand concentration 0.05 nM; conditions: filed as antagonist, Compound concentration 10.0 uM
[4] = biological target: Aurora kinase A (Homo sapiens) (UniProt O14965); conditions: Compound concentration 1000.0 nM
[5] = biological target: G protein-coupled receptor kinase 3 (Homo sapiens) (UniProt P35626); conditions: Compound concentration 1000.0 nM
[6] = biological target: D(1A) dopamine receptor (Homo sapiens) (UniProt P21728); conditions: Compound concentration 10.0 uM
[7] = biological target: Mitogen-activated protein kinase kinase kinase 19 (Homo sapiens) (UniProt Q56UN5); conditions: Compound concentration 1000.0 nM
[8] = biological target: Ankyrin repeat and protein kinase domain-containing protein 1 (Homo sapiens) (UniProt Q8NFD2); conditions: Compound concentration 1000.0 nM
[9] = biological target: Ribosomal protein S6 kinase beta-1 (Homo sapiens) (UniProt P23443); conditions: Compound concentration 1000.0 nM
[10] = biological target: Serine/threonine-protein kinase PLK3 (Homo sapiens) (UniProt Q9H4B4); conditions: Compound concentration 1000.0 nM
[11] = biological target: Mitotic checkpoint serine/threonine-protein kinase BUB1 (Homo sapiens) (UniProt O43683); conditions: Compound concentration 1000.0 nM
[12] = biological target: Serine/threonine-protein kinase PLK2 (Homo sapiens) (UniProt Q9NYY3); conditions: Compound concentration 1000.0 nM
[13] = biological target: Type-2 angiotensin II receptor (Homo sapiens) (UniProt P50052); assay: AT2 (h) Eurofins-Cerep binding assay; set-up: ligand concentration 0.01 nM; conditions: filed as agonist, Compound concentration 10.0 uM
[14] = biological target: Serine/threonine-protein kinase pim-2 (Homo sapiens) (UniProt Q9P1W9); conditions: Compound concentration 1000.0 nM
[15] = system: Receptor-type tyrosine-protein kinase FLT3 (Homo sapiens), P36888 [D835Y]; conditions: Compound concentration 1000.0 nM
[16] = biological target: MAP/microtubule affinity-regulating kinase 3 (Homo sapiens) (UniProt P27448); conditions: Compound concentration 1000.0 nM
[17] = biological target: Phosphatidylinositol 3-kinase catalytic subunit type 3 (Homo sapiens) (UniProt Q8NEB9); conditions: Compound concentration 1000.0 nM
[18] = biological target: Serine/threonine-protein kinase 38 (Homo sapiens) (UniProt Q15208); conditions: Compound concentration 1000.0 nM
[19] = biological target: Serine/threonine-protein kinase TAO3 (Homo sapiens) (UniProt Q9H2K8); conditions: Compound concentration 1000.0 nM
[20] = biological target: Serine/threonine-protein kinase Nek3 (Homo sapiens) (UniProt P51956); conditions: Compound concentration 1000.0 nM
[21] = biological target: Muscle, skeletal receptor tyrosine-protein kinase (Homo sapiens) (UniProt O15146); conditions: Compound concentration 1000.0 nM
[22] = biological target: Casein kinase I isoform alpha (Homo sapiens) (UniProt P48729); conditions: Compound concentration 1000.0 nM
[23] = biological target: Serine/threonine-protein kinase 32B (Homo sapiens) (UniProt Q9NY57); conditions: Compound concentration 1000.0 nM
[24] = biological target: Serine/threonine-protein kinase N2 (Homo sapiens) (UniProt Q16513); conditions: Compound concentration 1000.0 nM
[25] = biological target: Glycogen synthase kinase-3 beta (Homo sapiens) (UniProt P49841); conditions: Compound concentration 1000.0 nM
[26] = biological target: Beta-1 adrenergic receptor (Homo sapiens) (UniProt P08588); assay: Beta1 (h) Eurofins-Cerep binding assay; set-up: ligand concentration 0.3 nM; conditions: filed as agonist, Compound concentration 10.0 uM
[27] = biological target: Mast/stem cell growth factor receptor Kit (Homo sapiens) (UniProt P10721); conditions: Compound concentration 1000.0 nM
[28] = biological target: Serine/threonine-protein kinase BRSK1 (Homo sapiens) (UniProt Q8TDC3); conditions: Compound concentration 1000.0 nM
[29] = biological target: Protein kinase C epsilon type (Homo sapiens) (UniProt Q02156); conditions: Compound concentration 1000.0 nM
[30] = biological target: Serine/threonine-protein kinase DCLK3 (Homo sapiens) (UniProt Q9C098); conditions: Compound concentration 1000.0 nM
[31] = biological target: Serine/threonine-protein kinase haspin (Homo sapiens) (UniProt Q8TF76); conditions: Compound concentration 1000.0 nM
[32] = biological target: Tyrosine-protein kinase Fes/Fps (Homo sapiens) (UniProt P07332); conditions: Compound concentration 1000.0 nM
[33] = biological target: Serine/threonine-protein kinase D1 (Homo sapiens) (UniProt Q15139); conditions: Compound concentration 1000.0 nM
[34] = biological target: 5-hydroxytryptamine receptor 1D (Homo sapiens) (UniProt P28221); conditions: Compound concentration 10.0 uM
[35] = biological target: Serine/threonine-protein kinase pim-3 (Homo sapiens) (UniProt Q86V86); conditions: Compound concentration 1000.0 nM
[36] = biological target: Calcium/calmodulin-dependent protein kinase type 1G (Homo sapiens) (UniProt Q96NX5); conditions: Compound concentration 1000.0 nM
[37] = biological target: Interleukin-1 receptor-associated kinase 4 (Homo sapiens) (UniProt Q9NWZ3); conditions: Compound concentration 1000.0 nM

Sequence of Delta-type opioid receptor (Homo sapiens) (P41143 whole entry): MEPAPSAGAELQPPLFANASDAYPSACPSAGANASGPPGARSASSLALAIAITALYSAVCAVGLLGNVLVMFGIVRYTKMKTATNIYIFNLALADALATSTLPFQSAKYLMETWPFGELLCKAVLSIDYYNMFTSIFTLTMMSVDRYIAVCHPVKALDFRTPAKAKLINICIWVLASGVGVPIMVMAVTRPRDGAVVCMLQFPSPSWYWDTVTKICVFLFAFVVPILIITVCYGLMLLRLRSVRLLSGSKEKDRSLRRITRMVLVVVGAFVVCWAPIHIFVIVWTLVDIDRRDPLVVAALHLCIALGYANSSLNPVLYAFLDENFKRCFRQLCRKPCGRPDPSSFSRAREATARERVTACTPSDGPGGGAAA
Sequence of Serine/threonine-protein kinase haspin (Homo sapiens) (Q8TF76 whole entry): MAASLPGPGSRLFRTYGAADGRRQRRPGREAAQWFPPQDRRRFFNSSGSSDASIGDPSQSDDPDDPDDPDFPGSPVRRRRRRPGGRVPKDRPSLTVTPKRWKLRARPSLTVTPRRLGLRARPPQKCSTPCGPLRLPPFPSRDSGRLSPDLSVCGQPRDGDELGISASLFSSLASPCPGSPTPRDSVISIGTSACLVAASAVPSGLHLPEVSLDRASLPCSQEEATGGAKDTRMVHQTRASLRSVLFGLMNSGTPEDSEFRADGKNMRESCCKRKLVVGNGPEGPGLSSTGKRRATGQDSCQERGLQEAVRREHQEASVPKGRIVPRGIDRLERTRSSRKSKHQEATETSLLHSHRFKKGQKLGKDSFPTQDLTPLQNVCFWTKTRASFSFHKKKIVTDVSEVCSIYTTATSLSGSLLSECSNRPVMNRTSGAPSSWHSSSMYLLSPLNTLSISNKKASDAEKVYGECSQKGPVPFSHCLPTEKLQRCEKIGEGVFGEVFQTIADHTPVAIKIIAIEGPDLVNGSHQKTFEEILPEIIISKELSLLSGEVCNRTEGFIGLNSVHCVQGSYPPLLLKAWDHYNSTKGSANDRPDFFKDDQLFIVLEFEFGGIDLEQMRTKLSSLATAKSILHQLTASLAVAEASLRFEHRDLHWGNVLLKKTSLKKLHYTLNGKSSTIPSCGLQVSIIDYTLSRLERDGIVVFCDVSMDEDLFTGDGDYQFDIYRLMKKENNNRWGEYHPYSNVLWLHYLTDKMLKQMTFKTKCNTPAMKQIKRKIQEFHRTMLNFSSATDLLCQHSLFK
Sequence of Ribosomal protein S6 kinase beta-1 (Homo sapiens) (P23443 whole entry, looked up): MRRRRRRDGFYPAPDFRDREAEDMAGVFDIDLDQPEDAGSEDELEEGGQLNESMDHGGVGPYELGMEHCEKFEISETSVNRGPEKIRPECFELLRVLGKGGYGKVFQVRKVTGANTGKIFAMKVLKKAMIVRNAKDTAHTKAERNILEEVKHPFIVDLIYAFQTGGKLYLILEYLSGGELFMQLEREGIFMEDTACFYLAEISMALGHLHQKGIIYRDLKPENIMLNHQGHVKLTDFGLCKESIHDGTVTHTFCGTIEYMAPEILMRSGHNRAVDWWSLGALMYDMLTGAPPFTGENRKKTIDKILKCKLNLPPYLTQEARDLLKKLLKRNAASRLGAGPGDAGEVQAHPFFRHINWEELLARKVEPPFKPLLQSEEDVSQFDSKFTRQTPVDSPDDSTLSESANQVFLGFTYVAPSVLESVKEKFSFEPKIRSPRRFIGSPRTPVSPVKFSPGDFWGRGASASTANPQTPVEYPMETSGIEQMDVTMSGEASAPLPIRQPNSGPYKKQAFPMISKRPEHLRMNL
Sequence of 5-hydroxytryptamine receptor 1D (Homo sapiens) (P28221 whole entry): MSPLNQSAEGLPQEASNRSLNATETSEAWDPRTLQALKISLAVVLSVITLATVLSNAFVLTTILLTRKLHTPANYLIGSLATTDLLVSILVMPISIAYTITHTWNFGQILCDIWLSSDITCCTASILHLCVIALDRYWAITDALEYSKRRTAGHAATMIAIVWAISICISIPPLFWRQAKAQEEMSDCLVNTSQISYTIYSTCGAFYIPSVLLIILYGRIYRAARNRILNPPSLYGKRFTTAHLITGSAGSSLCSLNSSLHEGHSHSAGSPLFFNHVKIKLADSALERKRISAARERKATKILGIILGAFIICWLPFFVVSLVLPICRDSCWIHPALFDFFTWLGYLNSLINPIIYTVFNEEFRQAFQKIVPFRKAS
Sequence of Serine/threonine-protein kinase pim-2 (Homo sapiens) (Q9P1W9 whole entry, looked up): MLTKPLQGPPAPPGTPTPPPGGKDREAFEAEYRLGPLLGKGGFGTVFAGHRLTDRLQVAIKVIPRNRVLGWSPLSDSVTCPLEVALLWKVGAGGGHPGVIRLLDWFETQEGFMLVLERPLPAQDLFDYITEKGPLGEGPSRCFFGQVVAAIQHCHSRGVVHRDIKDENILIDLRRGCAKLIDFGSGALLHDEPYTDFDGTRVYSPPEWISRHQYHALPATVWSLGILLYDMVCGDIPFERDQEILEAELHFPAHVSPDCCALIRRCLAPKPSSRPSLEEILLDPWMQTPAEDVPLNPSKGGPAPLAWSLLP
Sequence of Mast/stem cell growth factor receptor Kit (Homo sapiens) (P10721 whole entry): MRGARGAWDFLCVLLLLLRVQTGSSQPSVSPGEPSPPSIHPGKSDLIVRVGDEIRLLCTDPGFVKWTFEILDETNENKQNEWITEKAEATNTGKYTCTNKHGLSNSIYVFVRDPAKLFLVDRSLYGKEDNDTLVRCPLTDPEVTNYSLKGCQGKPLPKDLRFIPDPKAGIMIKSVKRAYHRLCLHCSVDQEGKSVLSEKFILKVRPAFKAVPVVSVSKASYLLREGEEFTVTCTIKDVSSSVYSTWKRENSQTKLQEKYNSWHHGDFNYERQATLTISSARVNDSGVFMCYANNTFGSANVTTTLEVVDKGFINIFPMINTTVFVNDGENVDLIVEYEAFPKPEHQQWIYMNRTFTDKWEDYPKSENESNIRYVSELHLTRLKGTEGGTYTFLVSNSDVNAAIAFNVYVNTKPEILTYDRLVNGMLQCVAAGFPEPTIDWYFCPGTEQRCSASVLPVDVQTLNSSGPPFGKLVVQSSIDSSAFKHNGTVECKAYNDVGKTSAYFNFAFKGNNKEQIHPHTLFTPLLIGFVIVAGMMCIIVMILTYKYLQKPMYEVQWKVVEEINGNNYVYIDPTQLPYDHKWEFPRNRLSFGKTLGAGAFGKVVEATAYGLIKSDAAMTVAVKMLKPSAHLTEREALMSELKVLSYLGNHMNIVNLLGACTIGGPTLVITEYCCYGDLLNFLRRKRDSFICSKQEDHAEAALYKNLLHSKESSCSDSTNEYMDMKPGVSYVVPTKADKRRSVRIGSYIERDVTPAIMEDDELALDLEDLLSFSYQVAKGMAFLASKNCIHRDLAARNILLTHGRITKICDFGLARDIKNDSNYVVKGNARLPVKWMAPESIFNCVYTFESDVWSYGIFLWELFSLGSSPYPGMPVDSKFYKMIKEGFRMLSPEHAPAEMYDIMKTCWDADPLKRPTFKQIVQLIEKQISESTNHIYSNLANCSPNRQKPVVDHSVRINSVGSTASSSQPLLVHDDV
Sequence of Serine/threonine-protein kinase 32B (Homo sapiens) (Q9NY57 whole entry): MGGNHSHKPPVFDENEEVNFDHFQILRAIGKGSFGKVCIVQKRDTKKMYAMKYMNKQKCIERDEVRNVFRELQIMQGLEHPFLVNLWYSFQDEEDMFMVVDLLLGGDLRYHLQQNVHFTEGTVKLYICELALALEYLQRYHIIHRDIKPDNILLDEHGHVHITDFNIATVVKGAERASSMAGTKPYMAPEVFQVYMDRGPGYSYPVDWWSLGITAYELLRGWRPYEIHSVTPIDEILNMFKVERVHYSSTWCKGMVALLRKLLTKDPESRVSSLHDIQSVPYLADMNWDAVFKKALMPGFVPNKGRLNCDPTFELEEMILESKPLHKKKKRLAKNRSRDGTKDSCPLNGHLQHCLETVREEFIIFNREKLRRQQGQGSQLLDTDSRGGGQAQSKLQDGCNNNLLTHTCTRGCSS
Sequence of Serine/threonine-protein kinase 38 (Homo sapiens) (Q15208 2-465 limits assumed): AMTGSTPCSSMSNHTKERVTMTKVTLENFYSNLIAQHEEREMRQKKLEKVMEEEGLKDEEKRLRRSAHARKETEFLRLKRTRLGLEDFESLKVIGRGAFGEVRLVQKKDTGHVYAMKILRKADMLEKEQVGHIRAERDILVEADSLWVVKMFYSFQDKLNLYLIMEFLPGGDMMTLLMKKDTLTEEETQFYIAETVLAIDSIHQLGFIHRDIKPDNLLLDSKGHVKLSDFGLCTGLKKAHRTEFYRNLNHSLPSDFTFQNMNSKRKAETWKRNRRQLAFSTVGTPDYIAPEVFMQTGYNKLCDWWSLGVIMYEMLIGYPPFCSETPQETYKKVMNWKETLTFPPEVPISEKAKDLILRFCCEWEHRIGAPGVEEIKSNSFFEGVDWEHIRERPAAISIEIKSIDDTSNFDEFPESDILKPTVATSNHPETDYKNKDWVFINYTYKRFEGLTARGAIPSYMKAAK
Sequence of Ankyrin repeat and protein kinase domain-containing protein 1 (Homo sapiens) (Q8NFD2 whole entry, the tested form may be a part): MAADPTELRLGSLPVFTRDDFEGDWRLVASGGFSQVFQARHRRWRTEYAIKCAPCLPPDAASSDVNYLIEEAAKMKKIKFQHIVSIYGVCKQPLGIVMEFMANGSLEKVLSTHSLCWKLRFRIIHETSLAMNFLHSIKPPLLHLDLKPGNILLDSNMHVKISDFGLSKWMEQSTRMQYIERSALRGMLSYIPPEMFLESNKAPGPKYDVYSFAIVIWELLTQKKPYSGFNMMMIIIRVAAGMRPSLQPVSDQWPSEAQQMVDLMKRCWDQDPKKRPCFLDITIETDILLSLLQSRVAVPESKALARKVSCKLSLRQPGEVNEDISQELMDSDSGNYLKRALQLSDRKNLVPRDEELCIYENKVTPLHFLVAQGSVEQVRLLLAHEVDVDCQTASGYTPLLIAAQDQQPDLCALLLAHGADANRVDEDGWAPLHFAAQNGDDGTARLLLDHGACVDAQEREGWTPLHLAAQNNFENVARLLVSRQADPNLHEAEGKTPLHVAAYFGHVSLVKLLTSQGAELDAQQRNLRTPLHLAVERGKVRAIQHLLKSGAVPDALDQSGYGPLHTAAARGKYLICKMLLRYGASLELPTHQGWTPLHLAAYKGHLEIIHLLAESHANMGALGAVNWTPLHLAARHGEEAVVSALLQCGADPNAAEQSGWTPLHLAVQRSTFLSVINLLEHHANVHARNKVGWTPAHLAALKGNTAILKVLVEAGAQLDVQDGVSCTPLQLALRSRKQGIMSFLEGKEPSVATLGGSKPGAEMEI

`COc1ccc2c(c1)O[C@@H](c1ccc(OC)c(OC)c1)C[C@H]2NC(=O)C1(c2ccc3c(c2)OC(F)(F)O3)CC1` [A-1596586] showed an inhibition [1] of -7.29%, a % Inhibition of Control Specific Binding (Mean n=2) [2] of 63.5% and a % Inhibition of Control Specific Binding (Mean n=2) [3] of -1.1%. For the same compound, the residual activity [4] was 92%, the residual activity [5] was 75% and the inhibition [6] was 29.2%. The residual activity [7] was 83%, the residual activity [8] was 76% and the residual activity [9] was 81%. For the same compound, the residual activity [10] was 92%, the residual activity [11] was 99% and the residual activity [12] was 81%. For the same compound, the % Inhibition of Control Specific Binding (Mean n=2) [13] was 4.9%, the residual activity [14] was 100% and the residual activity [15] was 100%. The residual activity [16] was 100%, the residual activity [17] was 78% and the residual activity [18] was 91%. The residual activity [19] was 91%, the residual activity [20] was 76% and the residual activity [21] was 94%. It also gave a residual activity [22] of 78%, a residual activity [23] of 100% and a residual activity [24] of 100%. It also gave a residual activity [25] of 92%, a % Inhibition of Control Specific Binding (Mean n=2) [26] of 3.1% and a residual activity [27] of 86%. For the same compound, the residual activity [28] was 99%, the residual activity [29] was 91% and the residual activity [30] was 98%. It also gave a residual activity [31] of 81%, a residual activity [32] of 93% and a residual activity [33] of 95%. It also gave an inhibition [34] of 4.36%, a residual activity [35] of 91% and a residual activity [36] of 84%. For the same compound, the residual activity [37] was 82%.
For `COc1ccc2c(c1)O[C@H](c1ccc(OC)c(OC)c1)C[C@@H]2NC(=O)C1(c2ccc3c(c2)OC(F)(F)O3)CC1` [A-1596584], the inhibition [1] was -9.84%, the % Inhibition of Control Specific Binding (Mean n=2) [2] was 36.4% and the % Inhibition of Control Specific Binding (Mean n=2) [3] was 12.3%. It also gave a residual activity [4] of 100%, a residual activity [5] of 100% and an inhibition [6] of 35.1%. For the same compound, the residual activity [7] was 100%, the residual activity [8] was 100% and the residual activity [9] was 91%. The residual activity [10] was 100%, the residual activity [11] was 100% and the residual activity [12] was 100%. For the same compound, the % Inhibition of Control Specific Binding (Mean n=2) [13] was -3.4%, the residual activity [14] was 100% and the residual activity [15] was 100%. The residual activity [16] was 95%, the residual activity [17] was 88% and the residual activity [18] was 100%. The residual activity [19] was 100%, the residual activity [20] was 90% and the residual activity [21] was 100%. For the same compound, the residual activity [22] was 82%, the residual activity [23] was 100% and the residual activity [24] was 100%. For the same compound, the residual activity [25] was 100%, the % Inhibition of Control Specific Binding (Mean n=2) [26] was -2.1% and the residual activity [27] was 100%. For the same compound, the residual activity [28] was 100%, the residual activity [29] was 90% and the residual activity [30] was 100%. The residual activity [31] was 91%, the residual activity [32] was 97% and the residual activity [33] was 100%. The inhibition [34] was 6.1%, the residual activity [35] was 100% and the residual activity [36] was 100%. The residual activity [37] was 100%.
